The target in assay [1] is Cyclin-dependent kinase 2 (Homo sapiens, UniProt P24941).
For assay [2], the target named is Cyclin-dependent kinase 1 (Homo sapiens, UniProt P06493).
Description: Inhibition of Cyclin-dependent kinase 1 (CDK1) at 12.5 uM ATP

The text below walks through data of ChEMBL document CHEMBL1136212, “Structure-based design of 2-arylamino-4-cyclohexylmethyl-5-nitroso-6-aminopyrimidine inhibitors of cyclin-dependent kinases 1 and 2” (Bioorg Med Chem Lett, 2003).

Chain of Cyclin-dependent kinase 1 (P06493 whole entry): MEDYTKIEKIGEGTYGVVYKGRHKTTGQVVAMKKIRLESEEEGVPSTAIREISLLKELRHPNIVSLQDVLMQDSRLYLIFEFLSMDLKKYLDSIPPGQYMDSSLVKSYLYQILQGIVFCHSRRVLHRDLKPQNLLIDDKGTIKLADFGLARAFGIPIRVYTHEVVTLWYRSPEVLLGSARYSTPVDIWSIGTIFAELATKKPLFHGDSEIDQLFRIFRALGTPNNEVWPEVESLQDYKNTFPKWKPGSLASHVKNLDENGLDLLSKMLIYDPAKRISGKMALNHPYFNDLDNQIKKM

Take `COc1ccc(Nc2nc(N)c(N=O)c(OCC3CCCCC3)n2)cc1`: the IC50 was determined as 220 nM in assay [1] and 230 nM in assay [2].
For `Nc1cc(OCC2CCCCC2)nc(Nc2ccc(S(N)(=O)=O)cc2)n1`, the results for the concentration for half-maximal inhibition (IC50) in assay [1] and in assay [2] were 2900 nM and 5300 nM, respectively.
In the same order, the values of `Nc1nc(Nc2cccc(Br)c2)nc(OCC2CCCCC2)c1N=O` are 500 nM and 800 nM.
For the molecule `Nc1nc(Nc2ccc(S(N)(=O)=O)cc2)nc(OCC2CCCCC2)c1N=O`, the concentration for half-maximal inhibition (IC50) in assay [1] was 1.1 nM; in assay [2], 5 nM.
Turning to `NC(=O)c1ccc(Nc2nc(N)cc(OCC3CCCCC3)n2)cc1`, the 50% inhibitory concentration (IC50) in assay [1] worked out at 59000 nM; in assay [2] it was 63000 nM.
In the case of `CSc1ccc(Nc2nc(N)c(N=O)c(OCC3CCCCC3)n2)cc1`, the IC50 in assay [1] is 120 nM; in assay [2] it was 220 nM.
